From patent EP4722219A1 (Gan & Lee Pharmaceuticals Co., Ltd., priority 2023, dated 2024) come the findings set out here.

Assay [1] has as its target T1, AR protein (Homo sapiens, UniProt P10275, T878A).
T1 construct: host or cells: LNCaP FGC
T1 sequence (P10275 1-920 T878A): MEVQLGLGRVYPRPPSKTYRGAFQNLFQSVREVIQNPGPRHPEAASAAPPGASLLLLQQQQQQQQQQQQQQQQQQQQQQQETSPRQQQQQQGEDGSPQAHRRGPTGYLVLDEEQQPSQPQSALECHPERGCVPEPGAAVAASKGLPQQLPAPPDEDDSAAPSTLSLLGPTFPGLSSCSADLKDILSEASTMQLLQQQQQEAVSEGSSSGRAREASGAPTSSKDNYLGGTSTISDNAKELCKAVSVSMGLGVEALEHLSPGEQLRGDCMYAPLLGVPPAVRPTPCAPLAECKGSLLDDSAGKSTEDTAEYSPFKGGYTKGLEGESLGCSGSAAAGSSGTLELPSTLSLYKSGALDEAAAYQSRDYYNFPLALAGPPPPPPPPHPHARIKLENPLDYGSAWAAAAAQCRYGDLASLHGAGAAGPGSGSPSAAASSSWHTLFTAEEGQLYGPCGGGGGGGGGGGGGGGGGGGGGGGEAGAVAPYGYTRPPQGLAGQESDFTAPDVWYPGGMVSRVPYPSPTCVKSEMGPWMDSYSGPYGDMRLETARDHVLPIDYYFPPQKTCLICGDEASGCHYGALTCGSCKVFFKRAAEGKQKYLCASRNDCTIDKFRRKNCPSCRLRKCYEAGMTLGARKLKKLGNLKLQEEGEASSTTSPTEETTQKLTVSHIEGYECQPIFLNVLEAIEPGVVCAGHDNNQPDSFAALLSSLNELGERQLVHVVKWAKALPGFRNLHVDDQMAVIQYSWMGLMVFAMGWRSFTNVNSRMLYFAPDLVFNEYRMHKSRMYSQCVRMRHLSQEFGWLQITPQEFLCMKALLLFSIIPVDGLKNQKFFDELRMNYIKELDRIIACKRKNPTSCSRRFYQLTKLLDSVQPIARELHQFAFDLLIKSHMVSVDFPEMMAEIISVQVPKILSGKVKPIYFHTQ
Description: AR protein degradation in LNCaP cells (Western blot). In kind it is cell-based. The conditions noted are these: 8 hours; for Degradation of AR protein in LNCaP cells, 10 nM (%) / percent AR protein degradation at a fixed concentration at 0.01 µM: 10 nM; for Degradation of AR protein in LNCaP cells, 100 nM (%) / percent AR protein degradation at a fixed concentration at 0.1 µM: 100 nM. The gist of the method:
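LNCaP cells exposed to compound or solvent control for 8 h, lysed in RIPA, protein normalized by BCA. AR detected by SDS-PAGE/Western blot with infrared imaging; band grayscale normalized to GAPDH to calculate AR degradation rate.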
(In general: In western blotting, separated proteins are transferred to a membrane and probed.)

Assay [2] concerns VCaP cells. Kind of assay: Inhibition of VCaP cell proliferation (WST-8). The format is cell-based. The conditions noted are these: Homo sapiens, 168 hours. The gist of the method:
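VCaP cells seeded at 15,000/well in DMEM + 10% FBS, treated next day with nine 5-fold dilutions from 10 µM (final) at 37°C, 5% CO2. Viability read by WST-8 absorbance at 450 nm on day 9.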

Bounds are passed on as bounds.

`N#Cc1ccc(O[C@H]2CC[C@H](NC(=O)c3ccc(N4CCC(N5CC6(CCC7(CC6)COc6c7ccc7c6CN(C6CCC(=O)NC6=O)C7=O)C5)CC4)nn3)CC2)cc1Cl` (relative stereo) [A-P-1, N-((1r,4r)-4-(3-chloro-4-cyanophenoxy)cyclohexyl)-6-(4-(7'-(2,6-dioxopiperidin-3-yl)-6'-oxo-7',8'-dihydro-2'-H,6'-H-dihydro[azetidine-3,1'-cyclohexane-4',3"-furo[2,3-e]isoindol]-1-yl)piperidin-1-yl)pyridazine-3-carboxamide]: in assay [1], the “Degradation of AR protein in LNCaP cells, 10 nM (%)” value (“Degradation … 10 nM (%)” for short) came out at 66% and the “Degradation of AR protein in LNCaP cells, 100 nM (%)” value (“Degradation … 100 nM (%)” below) turned out to be 48%. Further, half-maximal inhibition in assay [2] (IC50) required 26 pM.
For `COc1cc(O[C@H]2C(C)(C)[C@H](NC(=O)c3ccc(N4CCC(CN5CC6(CCC7(CC6)COc6c7ccc7c6CN(C6CCC(=O)NC6=O)C7=O)C5)CC4)cc3)C2(C)C)ccc1C#N` (relative stereo) [A-P-3], in assay [1], the “Degradation … 10 nM (%)” value was found to be 64% and the “Degradation … 100 nM (%)” value was 65%. Also, 17 pM corresponded to half-maximal inhibition in assay [2] (IC50).
Take `COc1cc(O[C@H]2C(C)(C)[C@H](NC(=O)c3ccc(N4CCC(C)(CN5CC6(CCC7(CC6)COc6c7ccc7c6CN(C6CCC(=O)NC6=O)C7=O)C5)CC4)cc3)C2(C)C)ccc1C#N` (relative stereo) [A-P-4]: in assay [1], the “Degradation … 10 nM (%)” value was found to be 74% and the “Degradation … 100 nM (%)” value is listed as 83%. The half-maximal inhibitory concentration (IC50) (usually the point on the concentration scale where inhibition reaches its midpoint) in assay [2] was 190 pM.
`COc1cc(O[C@H]2C(C)(C)[C@H](NC(=O)c3ccc(N4CCC(F)(CN5CC6(CCC7(CC6)COc6c7ccc7c6CN(C6CCC(=O)NC6=O)C7=O)C5)CC4)cc3)C2(C)C)ccc1C#N` (relative stereo) [A-P-5]: in assay [1], the “Degradation … 10 nM (%)” value worked out at 43% and the “Degradation … 100 nM (%)” value was 62%. Besides, inhibition in assay [2] was half-maximal at 1700 pM (IC50).
In the same order, the values of `N#Cc1ccc(O[C@H]2CC[C@H](NC(=O)c3ccc(N4CCC(N5CCC6(CC5)CCC5(CC6)COc6c5ccc5c6CN(C6CCC(=O)NC6=O)C5=O)CC4)nn3)CC2)cc1Cl` (relative stereo) [A-P-7, N-((1r,4r)-4-(3-chloro-4-cyanophenoxy)cyclohexy 1)-6-(4-(7-(2,6-dioxopiperidin-3-yl)-6-oxo-7,8-dihydro-2H,6H-dipyridyl[2,3-e]isoindole-3,1'-cyclohexane-4',4'"-piperidin]-1"-yl)pyridazine-3-carboxamide] are 85%, 75% and 6000 pM.
In the same order, the values of `Cn1c(=O)n(C2CCC(=O)NC2=O)c2cc3c(cc21)C1(CCN(C2CC4(CCN(c5ccc(C(=O)N[C@H]6CC[C@H](Oc7ccc(C#N)c(Cl)c7)CC6)nn5)CC4)C2)CC1)CO3` (relative stereo) [A-P-12, N-((1r,4r)-4-(3-chloro-4-cyanophenoxy)cyclohexy 1)-6-(2-(3-(2,6-dioxopiperidin-3-yl)-1-methyl-2-oxo-2,3-dihydro-1H,6H-spiro[benzofuro[5,6-d]imidazole-7,4'-piperidin]-1'-yl)-7-azaspiro[3.5]nonan-7-yl)pyridazine-3-carboxamide] are 56%, 9% and 23 pM.
The corresponding values for `COc1cc(O[C@H]2C(C)(C)[C@H](NC(=O)c3ccc(N4CCC5(CC4)CC(N4CCC6(CC4)COc4cc7c(cc46)n(C)c(=O)n7C4CCC(=O)NC4=O)C5)nn3)C2(C)C)ccc1C#N` (relative stereo) [A-P-14, N-((1r,3r)-3-(4-cyano-3-methoxyphenoxy)-2,2,4,4-tetramethylcyclobutyl)-6-(2-(3-(2,6-dioxopiperidin-3-yl)-1-methyl-2-oxo-2,3-dihydro-1H,6H-spiro[benzofuro[5,6-d]imidazole-7,4'-piperidin]-1'-yl)-7-azaspiro[3.5]nonan-7-yl)pyridazine-3-carboxamide] are 36%, 32% and 2200 pM.
For the compound `COc1cc(O[C@H]2C(C)(C)[C@H](NC(=O)c3ccc(N4CCC(C)(CN5CCC6(CC5)COc5cc7c(cc56)n(C)c(=O)n7C5CCC(=O)NC5=O)CC4)cc3)C2(C)C)ccc1C#N` (relative stereo) [A-P-16], in assay [1], the “Degradation … 10 nM (%)” value was 49% and the “Degradation … 100 nM (%)” value is recorded as 29%. This compound yielded a concentration for half-maximal inhibition (IC50) in assay [2] of 1000 pM.
Take `COc1cc(O[C@H]2CC[C@H](NC(=O)c3ccc(N4CCC(CN5CCC6(CC5)COc5cc7c(cc56)n(C)c(=O)n7C5CCC(=O)NC5=O)CC4)nn3)CC2)ccc1C#N` (relative stereo) [A-P-17]: in assay [1], the “Degradation … 10 nM (%)” value is 1% and the “Degradation … 100 nM (%)” value is recorded as -18%. This compound also came in with a concentration for half-maximal inhibition (IC50) in assay [2] of 72000 pM.
With `COc1cc(O[C@H]2C(C)(C)[C@H](NC(=O)c3ccc(N4CCC5(CC4)CC(N4CCC6(CC4)COc4cc7c(cc46)n(C)c(=O)n7C4CCC(=O)NC4=O)C5)cc3)C2(C)C)ccc1C#N` (relative stereo) [A-P-21], in assay [1], the “Degradation … 10 nM (%)” value amounted to 52% and the “Degradation … 100 nM (%)” value was determined as 55%. This compound also returned a half-inhibitory concentration (IC50) in assay [2] of 2000 pM.
On to `COc1cc(O[C@H]2C(C)(C)[C@H](NC(=O)c3ccc(N4CCC(N5CC6(CCC7(CC6)COc6c7ccc7c6CN(C6CCC(=O)NC6=O)C7=O)C5)CC4)cc3)C2(C)C)ccc1C#N` (stereo partly drawn) [A-P-2], for which, in assay [1], the percent AR protein degradation at a fixed concentration at 0.01 µM is -42% and the percent AR protein degradation at a fixed concentration at 0.1 µM came to 43%. Further, it took 60 pM to reach half-maximal inhibition in assay [2] (IC50).
With `Cn1c(=O)n(C2CCC(=O)NC2=O)c2cc3c(cc21)C1(CCN(CC2CCN(c4ccc(C(=O)N[C@H]5CC[C@H](Oc6ccc(C#N)c(Cl)c6)CC5)nn4)CC2)CC1)CO3` (stereo partly drawn) [A-P-10], in assay [1], the percent AR protein degradation at a fixed concentration at 0.01 µM was 47% and the percent AR protein degradation at a fixed concentration at 0.1 µM was found to be 5%. The same compound registered an IC50 in assay [2] of 6000 pM.
For the compound `COc1cc(O[C@H]2C(C)(C)[C@H](NC(=O)c3ccc(N4CCC(F)(CN5CCC6(CC5)COc5cc7c(cc56)n(C)c(=O)n7C5CCC(=O)NC5=O)CC4)cc3)C2(C)C)ccc1C#N` (stereo partly drawn) [A-P-13], in assay [1], the percent AR protein degradation at a fixed concentration at 0.01 µM was 32% and the percent AR protein degradation at a fixed concentration at 0.1 µM is 35%. The same compound had a half-inhibitory concentration (IC50) in assay [2] of 4300 pM.
For `COc1cc(O[C@H]2CC[C@H](NC(=O)c3ccc(N4CCC(N5CCC6(CC5)COc5cc7c(cc56)n(C)c(=O)n7C5CCC(=O)NC5=O)CC4)nn3)CC2)ccc1C#N` (stereo partly drawn) [A-P-18, N-((1r,4r)-4-(4-cyano-3-methoxyphenoxy)cyclohexyl)-6-(4-(3-(2,6-dioxopyridyl-3-yl)-1-methyl-2-oxo-2,3-dihydro-1H,6H-spiro[benzofuro[5,6-d]imidazole-7,4'-piperidin]-1'-yl)piperidin-1-yl)pyridazine-3-carboxamide], in assay [1], the percent AR protein degradation at a fixed concentration at 0.01 µM came to 43% and the percent AR protein degradation at a fixed concentration at 0.1 µM was found to be 11%. Moreover, the IC50 in assay [2] was less than 5.1 pM.
`COc1cc(O[C@H]2CC[C@H](NC(=O)c3ccc(N4CCC(CN5CCC6(CC5)COc5c6ccc6c5n(C)c(=O)n6C5CCC(=O)NC5=O)CC4)nn3)CC2)ccc1C#N` (stereo partly drawn) [A-P-22]: in assay [1], the percent AR protein degradation at a fixed concentration at 0.01 µM was 48% and the percent AR protein degradation at a fixed concentration at 0.1 µM stood at 25%. This compound displayed an IC50 in assay [2] of 26 pM.
For `Cn1c(=O)n(C2CCC(=O)NC2=O)c2ccc3c(c21)OCC31CCN(C2CCN(c3ccc(C(=O)N[C@H]4CC[C@H](Oc5ccc(C#N)c(Cl)c5)CC4)nn3)CC2)CC1` (stereo partly drawn) [A-P-23], in assay [1], the percent AR protein degradation at a fixed concentration at 0.01 µM is 37% and the percent AR protein degradation at a fixed concentration at 0.1 µM was 14%. The compound also had an IC50 in assay [2] of 46 pM.
In the same order, the values of `Cn1c(=O)n(C2CCC(=O)NC2=O)c2ccc3c(c21)OCC31CCN(CC2CCN(c3ccc(C(=O)N[C@H]4CC[C@H](Oc5ccc(C#N)c(Cl)c5)CC4)nn3)CC2)CC1` (stereo partly drawn) [A-P-24] are 49%, 29% and 8.1 pM.
The corresponding values for `Cn1c(=O)n(C2CCC(=O)NC2=O)c2ccc3c(c21)OCC31CCN(C2CC3(CCN(c4ccc(C(=O)N[C@H]5CC[C@H](Oc6ccc(C#N)c(Cl)c6)CC5)nn4)CC3)C2)CC1` (stereo partly drawn) [A-P-25] are 58%, 31% and 140 pM.
